We go through 8 compounds from US20060160811A1, “Aryl-condensed 3-arylpridine compounds and use thereof for controlling pathogenic fungi” (priority 2003, published 2006).

For one data set, the system named is Leptosphaeria nodorum. Description: Activity against leaf blotch on wheat caused by Leptosphaeria nodorum, protective application. As to conditions: protective spray, wheat cultivar Kanzler, inoculated next day, visual rating after 8 days, untreated control 80%. The data set is classed as in vivo. The protocol: The active compounds were prepared as a stock solution with 0.25% by weight of active compound in acetone or DMSO (dimethyl sulfoxide). 1% by weight of the emulsifier Uniperol® EL (wetting agent having emulsifying and dispersing action based on ethoxylated alkylphenols) was added to this solution, and the solution was diluted with water to the desired concentration.
Activity against leaf blotch on wheat caused by Leptosphaeria nodorum, protective application.
Pots with wheat plants of the cultivar “Kanzler” were sprayed to runoff point with an aqueous suspension having the concentration of active compound stated below. The next day, the pots were inoculated with an aqueous spore suspension of Leptosphaeria nodorum. The plants were then placed in a chamber at 20° C. and maximum atmospheric humidity. After 8 days, the leaf blotch on the untreated but infected control plants had developed to such an extent that the degree of infection could be determined visually in %.

For `Fc1cc(F)c(-c2c(Cl)nc3ncncc3c2Cl)c(F)c1` [Example 2, 5,7-Dichloro-6-(2,4,6-trifluorophenyl)pyrido[2,3-d]pyrimidine], the melting point worked out at 169 °C.
As for `Oc1nc2ncncc2c(O)c1-c1c(F)cc(F)cc1F` [Example 1, 6-(2,4,6-Trifluorophenyl)pyrido[2,3-d]pyrimidine-5,7-diol], the melting point is 348 °C (dec.).
Consider `CC1CCN(c2nc3ncncc3c(Cl)c2-c2c(F)cc(F)cc2F)CC1`, for which the “Leaf infection [%] at 250 ppm” value with Leptosphaeria nodorum worked out at 3%.
For the compound `Oc1nc2nccnc2c(O)c1-c1c(F)cc(F)cc1F`, in the data set on Leptosphaeria nodorum, the “Leaf infection [%] at 250 ppm” value is recorded as 10%.
`CC1CCN(c2c(-c3c(F)cc(F)cc3F)c(O)nc3ncncc23)CC1` [Example 8, 5-(4-Methylpiperidin-1-yl)-6-(2,4,6-trifluorophenyl)pyrido[2,3-d]pyrimidin-7-ol] displayed a melting point of 268 °C.
Compound `Fc1cc(F)c(-c2c(OCc3ccccc3)nc3ncncc3c2Cl)c(F)c1` (hydrate or solvate) [Example 3, 7-Benzyloxy-5-chloro-6-(2,4,6-trifluorophenyl)pyrido[2,3-d]pyrimidine] registered a melting point of 146 °C.
On to `Cc1ccc2c(O)c(-c3c(F)cc(F)cc3F)c(C)nc2n1` [Example 5, 2,7-Dimethyl-3-(2,4,6-trifluorophenyl)-[1,8]naphthyridin-4-ol], for which the melting point turned out to be 315 °C.
On to `Fc1cc(F)c(-c2c(Cl)nc3ncncc3c2Cl)c(F)c1` [drawing 26], for which, in the data set on Leptosphaeria nodorum, the “Leaf infection [%] at 250 ppm” value is listed as 3%.

What is called melting point is the temperature of the solid-liquid transition.
